This note sets out measurements from patent publication US20100056524A1, “Compound” (priority 2008, published 2010).

SMILES strings stand for the structures. Counter-ions that a name gives are not always drawn. Like-named read-outs stand apart in the source and are kept apart here.

What all share (assay type): biochemical
One assay has as its target T1, MKK1 (Homo sapiens, UniProt Q02750).
T1 construct: All protein kinases were of human origin and encoded full length proteins, unless indicated otherwise; made in house
Kind of assay: MKK1 protein kinase assay. Particulars: for remaining activity at 1 µM: 1 μM compound; for remaining activity at 10 µM: 10 μM compound; for residual kinase activity MKK1: 1 μm compound. From the text:
(§1) All protein kinases were of human origin and encoded full length proteins, unless indicated otherwise. They were either expressed as glutathione S-transferase (GST) fusion proteins in Escherichia Coli or as hexahistidine (His6)-tagged proteins in insect Sf21 cells. GST fusion proteins were purified by affinity chromatography on glutathione-Sepharose, and His6-tagged proteins on nickel/nitriloacetate-agarose. The procedures for expressing some of the protein kinases used herein have been detailed previously.^8,9 The following sections outline the DNA vectors synthesised and the procedures used to express and purifying protein kinases that have not been reported previously.
(§2) All assays (25.5 μl) were carried out at room temperature (21° C.) and were linear with respect to time and enzyme concentration under the conditions used. Assays were performed for 30 min using Multidrop Micro reagent dispensers (Thermo Electron Corporation, Waltham, Mass. 02454, USA) in a 96-well format. The concentration of magnesium acetate in the assays was 10 mM and the [γ-33P] ATP (800 cpm/pmol) was used at 5, 20 or 50 μM as indicated, in order to be at or below the Km for ATP for each enzyme. Protein kinases assayed at 5 μM ATP were: —ERK1, ERK8, PKBα, MARK3, Aurora C. Protein kinases assayed at 20 μM ATP were: —JNK1, PDK1, CHK1, CHK2, CDK2 and Aurora B. Protein kinases assayed at 50 μM ATP were: —MNK2, IKKepsilon and TBK1.
(§3) The assays were initiated with MgATP, stopped by addition of 5 μl of 0.5 M orthophosphoric acid and spotted on to P81 filterplates using a unifilter harvester (PerkinElmer, Boston, Mass. 02118, USA). The IC50 values of inhibitors were determined after carrying out assays at 10 different concentrations of each compound.
(§4) Unless stated otherwise, enzymes were diluted in 50 mM Tris/HCl pH 7.5, 0.1 mM EGTA, 1 mg/ml BSA, 0.1% (v/v) 2-mercaptoethanol and assayed in 50 mM Tris/HCl pH 7.5, 0.1 mM EGTA, 0.1% (v/v) 2-mercaptoethanol.

In a further assay the target is T2, RSK2 (Homo sapiens, UniProt P51812).
T2 construct: All protein kinases were of human origin and encoded full length proteins, unless indicated otherwise; made in house
T2 sequence (P51812 whole entry): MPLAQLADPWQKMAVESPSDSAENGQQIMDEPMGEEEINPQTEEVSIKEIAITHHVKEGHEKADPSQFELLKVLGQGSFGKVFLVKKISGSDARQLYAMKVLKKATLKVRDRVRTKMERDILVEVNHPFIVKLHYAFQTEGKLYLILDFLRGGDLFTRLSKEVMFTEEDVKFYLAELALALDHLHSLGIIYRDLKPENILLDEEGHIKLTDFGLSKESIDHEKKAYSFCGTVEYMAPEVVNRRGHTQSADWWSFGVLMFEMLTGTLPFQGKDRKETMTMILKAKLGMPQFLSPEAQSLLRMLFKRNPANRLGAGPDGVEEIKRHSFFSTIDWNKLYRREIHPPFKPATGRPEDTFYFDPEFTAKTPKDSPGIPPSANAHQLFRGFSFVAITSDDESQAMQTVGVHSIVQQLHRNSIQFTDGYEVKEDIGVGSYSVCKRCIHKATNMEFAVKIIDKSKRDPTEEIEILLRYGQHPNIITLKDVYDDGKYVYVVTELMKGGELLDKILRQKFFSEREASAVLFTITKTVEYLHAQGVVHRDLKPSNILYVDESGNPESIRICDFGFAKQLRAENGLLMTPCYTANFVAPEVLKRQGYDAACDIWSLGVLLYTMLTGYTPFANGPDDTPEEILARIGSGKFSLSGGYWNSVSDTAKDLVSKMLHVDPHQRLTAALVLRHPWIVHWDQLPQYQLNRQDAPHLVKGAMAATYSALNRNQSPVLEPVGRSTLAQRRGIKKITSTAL
Kind of assay: RSK2 protein kinase assay. Conditions: for remaining activity at 1 µM: 1 μM compound; for remaining activity at 10 µM: 10 μM compound; for residual kinase activity RSK2: 1 μm compound.
Excerpt: as §1, §2, §3, §4

For the next assay, the target named is T3, IKKe (Homo sapiens, UniProt Q14164).
T3 construct: All protein kinases were of human origin and encoded full length proteins, unless indicated otherwise; His6; made in house; host or cells: insect Sf21 cells
T3 sequence (Q14164 1-716): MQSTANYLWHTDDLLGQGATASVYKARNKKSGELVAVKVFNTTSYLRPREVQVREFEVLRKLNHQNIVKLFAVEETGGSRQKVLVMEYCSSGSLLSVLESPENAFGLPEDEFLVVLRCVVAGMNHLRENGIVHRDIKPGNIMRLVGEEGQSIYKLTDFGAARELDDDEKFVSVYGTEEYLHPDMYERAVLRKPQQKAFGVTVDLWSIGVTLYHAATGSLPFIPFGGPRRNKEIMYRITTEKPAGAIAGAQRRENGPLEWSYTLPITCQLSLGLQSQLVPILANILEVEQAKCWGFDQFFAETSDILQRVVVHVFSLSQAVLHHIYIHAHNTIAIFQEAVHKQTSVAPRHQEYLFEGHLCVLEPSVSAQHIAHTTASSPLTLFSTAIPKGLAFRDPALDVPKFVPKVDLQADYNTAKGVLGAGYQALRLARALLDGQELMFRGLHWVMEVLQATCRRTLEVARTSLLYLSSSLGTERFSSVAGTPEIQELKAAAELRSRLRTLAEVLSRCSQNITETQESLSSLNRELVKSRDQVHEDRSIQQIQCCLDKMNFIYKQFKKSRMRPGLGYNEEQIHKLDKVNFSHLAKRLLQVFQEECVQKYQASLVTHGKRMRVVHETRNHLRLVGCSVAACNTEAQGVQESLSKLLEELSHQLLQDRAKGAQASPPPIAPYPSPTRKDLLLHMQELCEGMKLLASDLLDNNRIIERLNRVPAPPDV
Kind of assay: IKKe protein kinase assay. Particulars: for remaining activity at 1 µM: 1 μM compound; for remaining activity at 10 µM: 10 μM compound; for residual kinase activity IKKe: 1 μm compound.
Excerpt: as §1
The following kinases were expressed in Sf21 cells: Aurora B and Aurora C, extra-cellular signal-regulated kinase 8 (ERK8), microtubule affinity regulating kinase 3 (MARK3), protein kinase Bα[118-480][S473D], protein kinase Bβ (PKBβ[120-481][S474D], 3-phosphoinositide-dependent protein kinase-1 [52-556]
as §2, §3, §4

Another assay concerns the target T4, EPH-B3 (Homo sapiens, UniProt P54753).
T4 construct: All protein kinases were of human origin and encoded full length proteins, unless indicated otherwise; made in house
T4 sequence (P54753 34-998): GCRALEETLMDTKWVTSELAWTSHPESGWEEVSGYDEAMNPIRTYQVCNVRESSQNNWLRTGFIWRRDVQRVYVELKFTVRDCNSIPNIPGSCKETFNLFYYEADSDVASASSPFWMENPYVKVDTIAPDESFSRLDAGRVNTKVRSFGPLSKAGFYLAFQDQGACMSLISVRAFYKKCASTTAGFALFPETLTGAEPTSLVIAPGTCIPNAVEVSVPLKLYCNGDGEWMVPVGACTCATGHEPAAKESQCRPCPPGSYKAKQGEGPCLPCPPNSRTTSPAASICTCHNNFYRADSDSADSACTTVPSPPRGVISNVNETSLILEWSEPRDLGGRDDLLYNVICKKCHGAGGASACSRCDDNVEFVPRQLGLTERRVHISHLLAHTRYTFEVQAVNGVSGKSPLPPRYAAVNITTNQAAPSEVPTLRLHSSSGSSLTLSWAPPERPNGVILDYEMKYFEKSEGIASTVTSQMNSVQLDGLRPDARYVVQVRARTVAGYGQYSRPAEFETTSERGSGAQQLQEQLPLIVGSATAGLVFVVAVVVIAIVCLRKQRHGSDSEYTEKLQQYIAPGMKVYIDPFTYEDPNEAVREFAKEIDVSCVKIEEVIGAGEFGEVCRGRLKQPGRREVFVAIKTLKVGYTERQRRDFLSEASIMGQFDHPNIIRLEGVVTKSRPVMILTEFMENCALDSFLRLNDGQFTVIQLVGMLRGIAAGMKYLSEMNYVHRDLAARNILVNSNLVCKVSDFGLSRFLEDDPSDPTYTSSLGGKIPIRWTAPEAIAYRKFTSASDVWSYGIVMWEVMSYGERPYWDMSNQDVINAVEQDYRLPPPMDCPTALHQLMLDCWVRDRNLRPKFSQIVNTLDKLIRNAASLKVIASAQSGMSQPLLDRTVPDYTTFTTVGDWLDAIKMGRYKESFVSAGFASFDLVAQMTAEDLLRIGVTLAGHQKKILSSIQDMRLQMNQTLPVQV
Kind of assay: EPH-B3 protein kinase assay. Conditions: for remaining activity at 1 µM: 1 μM compound; for remaining activity at 10 µM: 10 μM compound; for residual kinase activity EPH-B3: 1 μm compound.
Excerpt: as §1, §2, §3, §4

Where [1] appears, read: MKK1, read-out: residual kinase activity.
[2] abbreviates: RSK2, read-out: residual kinase activity.
The mark [3] stands for this setting: IKKe, 50 μM ATP, read-out: residual kinase activity.
The mark [4] stands for this setting: EPH-B3, read-out: residual kinase activity.
Where [5] appears, read: read-out: residual kinase activity MKK1.
[6] abbreviates: read-out: residual kinase activity RSK2.
Setting [7] is: read-out: residual kinase activity IKKe.
Setting [8] is: read-out: residual kinase activity EPH-B3.

T1 sequence (Q02750 whole entry): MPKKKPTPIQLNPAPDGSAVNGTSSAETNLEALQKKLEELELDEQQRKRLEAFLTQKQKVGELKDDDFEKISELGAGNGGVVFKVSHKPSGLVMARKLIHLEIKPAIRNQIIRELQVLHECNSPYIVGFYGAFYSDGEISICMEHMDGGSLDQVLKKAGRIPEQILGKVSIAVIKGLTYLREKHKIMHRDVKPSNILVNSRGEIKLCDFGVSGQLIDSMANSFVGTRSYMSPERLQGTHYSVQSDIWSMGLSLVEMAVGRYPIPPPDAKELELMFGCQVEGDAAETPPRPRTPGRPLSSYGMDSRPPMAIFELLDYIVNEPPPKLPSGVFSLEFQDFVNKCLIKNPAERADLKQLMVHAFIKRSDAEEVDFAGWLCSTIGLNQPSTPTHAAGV

Regarding `O=C(NCCCNc1nc(Nc2cccnc2)ncc1C1CC1)c1cccs1` [Example 50, Thiophene-2-carboxylic acid {3-[5-cyclopropyl-2-(pyridin-3-ylamino)-pyrimidin-4-ylamino]-propyl}-amide], the remaining activity at 1 µM amounted to 44% at MKK1 (setting [1]), 69% at RSK2 (setting [2]), 28% on IKKe (setting [3]) and 100% at EPH-B3 (setting [4]). Besides, the remaining activity at 10 µM on MKK1 (setting [1]) was 24%; at RSK2 (setting [2]), 28%; at IKKe (setting [3]), 7%; on EPH-B3 (setting [4]), 97%.

Turning to `O=C(NCCCNc1nc(Nc2cccc(F)c2)ncc1Br)C1CCC1` [Compound A, cyclobutanecarboxylic acid {3-[5-bromo-2-(3-fluoro-phenylamino)-pyrimidin-4-ylamino]-propyl}-amide, reference compound], the remaining activity at 10 µM on MKK1 (setting [5]) turned out to be 2%; at RSK2 (setting [6]), 9%; on IKKe (setting [7]) it was 3%; at EPH-B3 (setting [8]), 69%. For the same molecule, at MKK1, the “residual kinase activity MKK1” value stood at 15%. Also, the “residual kinase activity RSK2” value at RSK2 is listed as 38%. Further, the “residual kinase activity IKKe” value at IKKe was 13%. Also, the “residual kinase activity EPH-B3” value on EPH-B3 came out at 92%.

For `O=C(NCCCNc1nc(Nc2cccc(F)c2)ncc1C1CC1)C1CCC1` [Example 23, Cyclobutanecarboxylic acid {3-[5-cyclopropyl-2-(3-fluoro-phenylamino)-pyrimidin-4-ylamino]-propyl}-amide], the remaining activity at 10 µM turned out to be 25% at MKK1 (setting [5]); 25% at MKK1 (setting [1]); 14% on RSK2 (setting [6]); 14% at RSK2 (setting [2]); 5% at IKKe (setting [7]); 5% at IKKe (setting [3]). The remaining activity at 10 µM at EPH-B3 (setting [8]) and at EPH-B3 (setting [4]) was 95% in each case. On MKK1, the “residual kinase activity MKK1” value is reported as 52%. Besides, the remaining activity at 1 µM at MKK1 (setting [1]) was 52%; on RSK2 (setting [2]), 44%; on IKKe (setting [3]), 15%; at EPH-B3 (setting [4]) it was 120%. In addition, on RSK2, the “residual kinase activity RSK2” value stood at 44%. Besides, the “residual kinase activity IKKe” value at IKKe stood at 15%. The “residual kinase activity EPH-B3” value on EPH-B3 was 120%.

In the case of `O=C(NCCCNc1nc(Nc2cccc(N3CCCC3=O)c2)ncc1C1CC1)c1cccs1` [Example 47, Thiophene-2-carboxylic acid (3-{5-cyclopropyl-2-[3-(2-oxo-pyrrolidin-1-yl)-phenylamino]-pyrimidin-4-ylamino}-propyl)-amide. Hydrochloride salt], the remaining activity at 1 µM at MKK1 (setting [1]) stood at 33%; on RSK2 (setting [2]), 65%; on IKKe (setting [3]), 14%; on EPH-B3 (setting [4]), 48%. Besides, the remaining activity at 10 µM at MKK1 (setting [1]) was 17%; at RSK2 (setting [2]), 28%; on IKKe (setting [3]) it was 6%; on EPH-B3 (setting [4]) it was 93%.
